Data taken from patent publication US20230183239A1, “ECTONUCLEOTIDE PYROPHOSPHATASE-PHOSPHODIESTERASE 1 (ENPP-1) INHIBITORS AND USES THEREOF” (AbbVie Inc., priority 2017, published 2023).

Legend:
ENPP1 [1] = target: T1, ENPP1 (Homo sapiens, UniProt P22413); test: ENPP1 enzyme assay with AMP-pNP substrate (hydrolysis of ATP analog); assay type: biochemical
T1 sequence (P22413 1-925): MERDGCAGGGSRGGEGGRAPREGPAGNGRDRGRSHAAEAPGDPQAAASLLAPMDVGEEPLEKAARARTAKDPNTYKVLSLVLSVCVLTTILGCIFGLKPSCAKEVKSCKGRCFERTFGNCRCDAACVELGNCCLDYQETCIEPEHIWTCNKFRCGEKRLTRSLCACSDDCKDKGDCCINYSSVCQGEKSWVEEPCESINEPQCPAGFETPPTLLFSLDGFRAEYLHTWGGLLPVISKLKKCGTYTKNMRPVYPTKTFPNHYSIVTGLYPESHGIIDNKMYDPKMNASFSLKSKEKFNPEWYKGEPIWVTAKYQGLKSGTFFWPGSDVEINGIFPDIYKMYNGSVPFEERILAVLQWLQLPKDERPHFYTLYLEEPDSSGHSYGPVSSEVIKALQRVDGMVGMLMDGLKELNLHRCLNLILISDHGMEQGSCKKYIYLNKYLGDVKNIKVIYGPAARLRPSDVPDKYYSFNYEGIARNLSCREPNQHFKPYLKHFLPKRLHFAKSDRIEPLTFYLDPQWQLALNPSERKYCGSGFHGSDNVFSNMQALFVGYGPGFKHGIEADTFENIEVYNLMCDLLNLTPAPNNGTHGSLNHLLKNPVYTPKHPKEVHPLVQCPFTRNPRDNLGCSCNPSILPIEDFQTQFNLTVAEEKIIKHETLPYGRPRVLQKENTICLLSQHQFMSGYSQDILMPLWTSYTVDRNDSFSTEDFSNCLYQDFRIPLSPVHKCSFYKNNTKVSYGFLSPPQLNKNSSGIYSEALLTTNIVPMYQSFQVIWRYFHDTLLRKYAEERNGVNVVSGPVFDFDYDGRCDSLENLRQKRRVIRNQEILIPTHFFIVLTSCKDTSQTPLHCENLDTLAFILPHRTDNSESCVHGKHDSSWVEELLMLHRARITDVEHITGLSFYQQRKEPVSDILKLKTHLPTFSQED
Summary of the method: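 Reactions ran 20 min at 37 °C, pH 8.5 Tris buffer with NaCl, CaCl2, ZnCl2, using 300 µM AMP-pNP and 60 ng/well recombinant human ENPP1; inhibitor range 10 µM–30 pM, duplicates.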

ENPP1 [2] = target: T1, ENPP1; test: Indirect quantitation of 2',3'-cGAMP hydrolysis (AMP-Glo Assay kit); assay type: biochemical
IFNβ gene transcription = assay type: cell-based, human; conditions: 3, 6, and 19 hrs exposure; VACV-70 stimulated PBMCs
ENPP1 [3] = target: T1, ENPP1; test: Substrate selectivity ratio, inhibition of cGAMP hydrolysis versus ATP hydrolysis; assay type: biochemical; conditions: ratio Ki AMP-pNP / Ki cGAMP
Method: The selectivity ratios for inhibition of cGAMP hydrolysis versus ATP hydrolysis were then calculated as follows: […]

IFN β gene transcription = test: IFNβ mRNA in cGAMP-stimulated human foreskin fibroblasts (HFF-1); assay type: cell-based; conditions: cGAMP-stimulated human foreskin fibroblast cells (HFF-1)
Method: Human Foreskin Fibroblasts
The cell line was sourced from ATCC (Cat# SCRC-1041). Cells were cultured in 15% fetal bovine serum-containing growth medium. They were seeded in a 48 well plate @ 100,000 per well (300 µL), and incubated for 1 hour at 37° C., 5% CO2. 100 µl of compound (0.05 µM to 5 µM final concentrations) was added 30 min prior to addition of cGAMP (12.5 µM & 25 µM final concentrations). The plate was incubated for 3 hrs at 37° C., 5% CO2. Cells were washed with PBS and 250 µl of RLT reagent (provided in the RNA isolation kit (RNeasy Mini kit, Qiagen Cat # 74106). was added to each well. RNA was isolated using this kit as per the given protocol. RNA was converted to cDNA using a Bio-Rad cDNA conversion kit (iScript® cDNA synthesis kit, Bio-Rad Cat #170-8891). IFN βgene transcription was quantitated using SYBR green dye in an RT-PCR instrument. The methods and protocol were the same as for PBMCs, except that Interferon mRNA levels were normalized to GAPDH mRNA.

ENPP1 [4] = target: T1, ENPP1; test: ENPP1 enzyme assay with cGAMP substrate (AMP-Glo); assay type: biochemical; parameters: purchased R&D Systems; conditions: cGAMP substrate
Source text: Example B1: ENPP1 Enzyme Assay With cGAMP Substrate
Ectonucleotide pyrophosphatase/phosphodiesterase 1 (ENPP-1) is a transmembrane glycoprotein that hydrolyzes nucleotides and nucleotide derivatives with the formation of nucleoside-5’-monophosphates. […] The 5’-AMP formed from the reaction is detected using the AMP-Glo® Kit (Promega). The assay kit contains two reagents. The first reagent terminates the enzymatic reaction, removes ATP (using adenylyl cyclase), and converts 5’-AMP produced into ADP (using polyphosphate: AMP phosphotransferase). The second reagent converts ADP to ATP (using adenylate kinase) and generates light from ATP using the luciferin/luciferase reaction.
Different concentrations of ENPP1 inhibitors are pre-incubated with 5 ng/well of human ENPP-1 enzyme (R&D Systems) for 15 minutes at 37° C. The reaction is initiated by adding 20 µM 2’3’-cGAMP and incubating for 30 minutes at 37° C. The final assay reaction mixture contains a buffer of 50 mM Tris pH 8.0, 250 mM NaCl, 0.5 mM CaCl2, 1 µM ZnCl2 and 1% DMSO. At the end of the incubation, the reaction is stopped by adding 12 µl of AMP-Glo reagent-1 and mixing the reaction uniformly for 5 minutes, followed by incubation at room temperature for one hour. Then 25 µl of AMP Glo reagent-2 is added to the reaction, mixed uniformly with a pipette, and incubated at room temperature for one hour to convert the ADP formed from reagent-1 to ATP and light. The generated light is measured in a Perkin Elmer Victor® instrument.
(§1) The IC50 values for percent inhibition versus compound concentration are determined by fitting the inhibition curves using a four-parameter variable slope model in GraphPad Prism® software. Ki values are derived from the IC50 values using the Cheng-Prusoff equation: […]

ENPP1 [5] = target: T1, ENPP1; test: ENPP1 enzyme assay with TMP-pNP substrate; assay type: biochemical; parameters: purchased R&D Systems; conditions: Ki from IC50 by Cheng-Prusoff
Method: Example B2: ENPP1 Enzyme Assay With TMP-pNP Substrate
Ectonucleotide pyrophosphatase/phosphodiesterase 1 (ENPP-1) is a transmembrane glycoprotein that hydrolyzes nucleotides and nucleotide derivatives with the formation of nucleotide-5’-monophosphates. ENPP-1 hydrolyzes thymidine 5’monophosphate p-nitrophenyl ester (TMP-pNP) to nucleotide-5’-monophosphate and p-nitrophenol, which is a chromogenic product. The amount of p-nitrophenol product formed is measured using its absorbance at 405 nm, which is directly proportional to enzyme activity. Different concentrations of inhibitors are pre-incubated with 15 ng/well of human ENPP-1 enzyme (R&D Systems) for 15 minutes at 37° C. The reaction is initiated by adding 200 µM TMP-pNP and incubating for 10 minutes at 37° C. The final assay reaction mixture contains a buffer of 50 mM Tris pH 8.0, 250 mM NaCl, 0.5 mM CaCl2, 1 µM ZnCl2 and 1% DMSO. The amount of product formed is measured directly in a Tecan® spectrophotometer. Maximal activity control samples (containing enzyme, substrate, and buffer in the absence of ENPP1 inhibitors: MAX) and background control samples (containing enzyme, substrate, and buffer plus a fully inhibitory concentration (3 µM) of the reference ENPP1 Inhibitor, Example 333: MIN) are simultaneously evaluated in order to calculate the percent inhibition at each compound concentration as follows:
as §1, with “curves (percent inhibition versus inhibitor concentration)” for “curves”

[6] = AMP-pNP substrate (ATP analog), Ki from IC50 by Cheng-Prusoff, read-out: ENPP1 Inhibition _AMP-pNP: Ki
[7] = cGAMP substrate, Ki from IC50 by Cheng-Prusoff, read-out: ENPP1 Inhibition -cGAMP: Ki

Row | Structure (SMILES) | transcription of IFNβ (IFNβ gene transcription) | Ki (ENPP1 [1]; [6]) | Ki (ENPP1 [2]; [7]) | Substrate Selectivity: Ki_AMP-pNP/Ki_cGAMP (ENPP1 [3]) | transcription of IFNβ (IFN β gene transcription) | further results
1 | COc1ccc2c(Oc3ccc(NS(N)(=O)=O)cc3)ccnc2c1 [Example 54, N-(4-((7-methoxyquinolin-4-yl)oxy)phenyl)sulfamide] | enhances transcription of IFNβ |  |  |  |  | Ki (ENPP1 [1]): 100 to 1000 nM; Ki (ENPP1 [2]): < 100 nM
2 | COc1cc2ncnc(-c3ccc4c(c3)CN(S(N)(=O)=O)CC4)c2cc1OC [Example 32, 7-(6,7-dimethoxyquinazolin-4-yl)-3,4-dihydroisoquinoline-2(1H)-sulfonamide] |  | < 100 nM | < 100 nM | 24.3 | enhances transcription of IFNβ | inhibition at 1 µM (ENPP1 [4]; 1 µM compound, read-out: cGAMP: % Inhibition at 1 µM): > 75%
3 | COc1ccc2c(Oc3ccc(S(N)(=O)=O)cc3)ccnc2c1 [Example 58, 4-((7-methoxyquinolin-4-yl)oxy)benzenesulfonamide] | enhances transcription of IFNβ |  |  |  |  | 
4 | COc1ccc2c(-c3ccc(CNS(N)(=O)=O)cc3)ccnc2c1 [Example 55, N-(4-(7-methoxyquinolin-4-yl)benzyl)sulfamide] |  |  |  |  | enhances transcription of IFNβ | 
5 | COc1cc2ncc(C#N)c(N3CCC4(CC3)CCN(S(N)(=O)=O)C4)c2cc1F [Example 57, 8-(3-cyano-6-fluoro-7-methoxyquinolin-4-yl)-2,8-diazaspiro[4.5]decane-2-sulfonamide] |  | < 100 nM | < 100 nM | 24.7 | enhances .transcription of IFNβ | 
6 | Cn1cnc2ncnc(N3CCC(CCNS(N)(=O)=O)CC3)c21 [Example 22, N-(2-(1-(7-methyl-7H-purin-6-yl)piperidin-4-yl)ethyl)sulfamide] |  | > 1000 nM | < 100 nM | >115 |  | Ki (ENPP1 [4]; Ki from IC50 by Cheng-Prusoff, read-out: cGAMP: Ki): < 100 nM; Ki (ENPP1 [5]): > 1000 nM
